In US20220324835A1 (Nurix Therapeutics, Inc., priority 2018, published 2022) one finds fold induction and IC50 data, which are given here for eleven compounds.

pIC50: −log10 of the molar value. Some results are limits rather than exact numbers.

Assay [1] deals with T-cell. Kind of assay: IL-2 secretion from T-cells co-stimulated with anti-CD3 and anti-CD28 antibody (Biological Example 2). The format is cell-based, human. The conditions noted are these: Homo sapiens, T-cell, fold change over baseline, primary human total T-cells, read-out: IL-2 secretion Anti-CD3/Anti-CD28 stimulation; for fold induction at 0.3 µM: 0.3 μM Cbl-b inhibitor; for fold induction at 1 µM: 1 μM Cbl-b inhibitor; for fold induction at 4 µM: 4 μM Cbl-b inhibitor. The essentials:
(§1)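 No assay protocol given; T-cells stimulated with anti-CD3 alone or anti-CD3 plus anti-CD28, with or without Cbl-b inhibitor. Activation read as IL-2 secretion or CD25 surface staining, expressed as fold over baseline from uninhibited cells […].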

Assay [2] deals with T-cell. Kind of assay: IL-2 secretion from T-cells stimulated with anti-CD3 antibody alone (Biological Example 2). The format is cell-based, human. To be noted: T-cell, fold change over baseline, primary human total T-cells, read-out: IL-2 secretion Anti-CD3 stimulation; for fold induction at 1 µM: 1 μM Cbl-b inhibitor; for fold induction at 8 µM: 8 μM Cbl-b inhibitor.
Assay [3] has as its system T-cell. Put plainly: CD25 cell surface staining on T-cells co-stimulated with anti-CD3 and anti-CD28 antibody (Biological Example 2). In kind it is cell-based, human. To be noted: Homo sapiens, T-cell, fold change over baseline, primary human total T-cells, read-out: CD25 staining Anti-CD3/Anti-CD28 stimulation; for fold induction at 0.3 µM: 0.3 μM Cbl-b inhibitor; for fold induction at 1 µM: 1 μM Cbl-b inhibitor; for fold induction at 4 µM: 4 μM Cbl-b inhibitor. In outline: as §1

For assay [4], the system named is T-cell. Put plainly: CD25 cell surface staining on T-cells stimulated with anti-CD3 antibody alone (Biological Example 2). The format is cell-based, human. The conditions noted are these: T-cell, fold change over baseline, primary human total T-cells, read-out: CD25 staining Anti-CD3 stimulation; for fold induction at 1 µM: 1 μM Cbl-b inhibitor; for fold induction at 8 µM: 8 μM Cbl-b inhibitor.

The target of the next assay is Cbl-b (Homo sapiens, UniProt Q13191). Put plainly: Cbl-b inhibition assay (Cbl-b activity assay, FRET, Biological Example 1; 100 mM NaCl, 60 nM Src kinase). To be noted: upper bound stated in text lists; read-out: IC50 values in the Cbl-b inhibition assay of Biological Example 1. In kind it is biochemical. The essentials: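 Inhibition is read as loss of FRET signal. The signal arises when Src-phosphorylated, N-terminal biotinylated Avi-Cbl-b (captured by streptavidin-terbium) binds UbcH5B carrying covalently linked Bodipy-Fluorescein-tagged ubiquitin.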
Sequence of Cbl-b (Q13191 36-427): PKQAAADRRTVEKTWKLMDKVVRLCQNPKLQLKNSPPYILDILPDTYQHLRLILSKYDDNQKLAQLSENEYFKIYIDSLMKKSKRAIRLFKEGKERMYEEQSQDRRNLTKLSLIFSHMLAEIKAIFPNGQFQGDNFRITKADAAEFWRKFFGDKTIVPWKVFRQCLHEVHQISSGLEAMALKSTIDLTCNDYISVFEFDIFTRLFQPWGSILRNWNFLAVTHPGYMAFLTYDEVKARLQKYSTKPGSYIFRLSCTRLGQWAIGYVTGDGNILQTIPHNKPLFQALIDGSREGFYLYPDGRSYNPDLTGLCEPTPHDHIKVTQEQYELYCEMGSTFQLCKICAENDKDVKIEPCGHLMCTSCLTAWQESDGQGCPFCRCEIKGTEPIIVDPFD

For orientation: pIC50 means the IC50 on a negative log10 scale, so that one unit is a factor of ten.

As for `C[C@H](Sc1nncn1C)c1cccc(NC(=O)c2ccc(F)c(C3CC3)n2)c1` [Compound 91, 6-Cyclopropyl-5-fluoro-N-[3-[(1S)-1-[(4-methyl-1,2,4-triazol-3-yl)sulfanyl]ethyl]phenyl]pyridine-2-carboxamide], the values for the fold induction at 0.3 µM with T-cell [1] and in the assay on T-cell [3] were 1.01 to 2.5 and below 1, respectively. Besides, the fold induction at 1 µM with T-cell [1] was 2.51 to 5; with T-cell [2], below 0.05; in the assay with T-cell [3], below 1; in the assay on T-cell [4], 0.601 to 0.8. Further, the figures for the fold induction at 4 µM with T-cell [1] and in the assay on T-cell [3] were above 7.5 and 1.01 to 1.3, respectively. In addition, the fold induction at 8 µM in the assay with T-cell [2] was 0.101 to 0.15; in the assay on T-cell [4], above 1. The pIC50 on Cbl-b was at least 7.00.

In the case of `C[C@H](Sc1nncn1C)c1cccc(NC(=O)c2ccc(C#N)c(C3CC3)n2)c1` [Compound 92, 5-cyano-6-cyclopropyl-N-[3-[(1S)-1-[(4-methyl-1,2,4-triazol-3-yl)sulfanyl]ethyl]phenyl]pyridine-2-carboxamide], the fold induction at 0.3 µM with T-cell [1] is 1.01 to 2.5; in the assay with T-cell [3], 1.01 to 1.3. In addition, the fold induction at 1 µM in the assay with T-cell [1] is 2.51 to 5; with T-cell [2], below 0.05; with T-cell [3], 1.31 to 1.5; with T-cell [4] it was 0.601 to 0.8. The results for the fold induction at 4 µM in the assay on T-cell [1] and in the assay with T-cell [3] were 5 to 7.5 and 1.31 to 1.5, respectively. Besides, the fold induction at 8 µM is 0.101 to 0.15 in the assay with T-cell [2] and above 1 in the assay on T-cell [4]. The pIC50 on Cbl-b is at least 7.00.

On to `COc1ccc(C(=O)Nc2cccc([C@H](C)Sc3nncn3C)c2)nc1C1CC1` [Compound 93, 6-cyclopropyl-5-methoxy-N-[3-[(1S)-1-[(4-methyl-1,2,4-triazol-3-yl)sulfanyl]ethyl]phenyl]pyridine-2-carboxamide], for which, in the assay with T-cell [1], the fold induction at 0.3 µM was 1.01 to 2.5, the fold induction at 1 µM was in the range of 1.01 to 2.5 and the fold induction at 4 µM was 2.51 to 5. Moreover, in the assay on T-cell [2], the fold induction at 1 µM was below 0.05 and the fold induction at 8 µM is 0.101 to 0.15. Besides, in the assay with T-cell [3], the fold induction at 0.3 µM is 1.01 to 1.3, the fold induction at 1 µM lay within 1.01 to 1.3 and the fold induction at 4 µM lay within 1.01 to 1.3. In the assay with T-cell [4], the fold induction at 1 µM fell in the range of 0.601 to 0.8 and the fold induction at 8 µM is above 1. The negative logarithm of the IC50 (pIC50) at Cbl-b is at least 7.00.

In the case of `C[C@H](Cc1nncn1C)c1cccc(NC(=O)c2cccc(C(F)(F)F)n2)c1` [Compound 183a, (R)-N-(3-(1-(4-methyl-4H-1,2,4-triazol-3-yl)propan-2-yl)phenyl)-6-(trifluoromethyl)picolinamide], the values for the fold induction at 0.3 µM with T-cell [1] and with T-cell [3] were 2.51 to 5 and above 1.76, respectively. Besides, the fold induction at 1 µM was 5 to 7.5 in the assay on T-cell [1], above 0.201 with T-cell [2], above 1.76 in the assay on T-cell [3] and above 1 in the assay on T-cell [4]. Also, the results for the fold induction at 4 µM in the assay with T-cell [1] and in the assay with T-cell [3] were above 7.5 and above 1.76, respectively. Further, the fold induction at 8 µM with T-cell [2] is above 0.201; in the assay on T-cell [4], above 1. For the same compound, the pIC50 at Cbl-b is at least 7.00.

On to `C[C@H](Cc1nncn1C)c1cccc(NC(=O)c2cc(C3CC3)cc(C(F)(F)F)n2)c1` [Compound 191, (R)-4-cyclopropyl-N-(3-(1-(4-methyl-4H-1,2,4-triazol-3-yl)propan-2-yl)phenyl)-6-(trifluoromethyl)picolinamide], for which, in the assay with T-cell [1], the fold induction at 0.3 µM lay within 2.51 to 5, the fold induction at 1 µM was in the range of 5 to 7.5 and the fold induction at 4 µM is above 7.5. In the assay on T-cell [2], the fold induction at 1 µM is above 0.201 and the fold induction at 8 µM was above 0.201. In the assay on T-cell [3], the fold induction at 0.3 µM lay within 1.31 to 1.5, the fold induction at 1 µM lay within 1.51 to 1.75 and the fold induction at 4 µM was 1.51 to 1.75. For the same compound, in the assay with T-cell [4], the fold induction at 1 µM is above 1 and the fold induction at 8 µM is above 1. Moreover, on Cbl-b, the pIC50 is at least 7.00.

Turning to `C[C@H](Cc1nncn1C)c1cccc(NC(=O)c2cc(C3CC3)nc(C3CC3)n2)c1` [Compound 193, (R)-2,6-dicyclopropyl-N-(3-(1-(4-methyl-4H-1,2,4-triazol-3-yl)propan-2-yl)phenyl)pyrimidine-4-carboxamide], in the assay with T-cell [1], the fold induction at 0.3 µM lay within 2.51 to 5, the fold induction at 1 µM fell in the range of 5 to 7.5 and the fold induction at 4 µM was above 7.5. For the same compound, in the assay with T-cell [2], the fold induction at 1 µM is above 0.201 and the fold induction at 8 µM is above 0.201. Also, in the assay on T-cell [3], the fold induction at 0.3 µM lay in the range of 1.01 to 1.3, the fold induction at 1 µM lay within 1.51 to 1.75 and the fold induction at 4 µM was in the range of 1.51 to 1.75. Besides, in the assay on T-cell [4], the fold induction at 1 µM was above 1 and the fold induction at 8 µM was above 1. The pIC50 on Cbl-b was at least 7.00.

For `Cc1cc(C(=O)Nc2cccc([C@H](C)Cc3nncn3C)c2)nc(C(F)(F)F)n1` [Compound 194, (R)-6-methyl-N-(3-(1-(4-methyl-4H-1,2,4-triazol-3-yl)propan-2-yl)phenyl)-2-(trifluoromethyl)pyrimidine-4-carboxamide], in the assay with T-cell [1], the fold induction at 0.3 µM fell in the range of 2.51 to 5, the fold induction at 1 µM was above 7.5 and the fold induction at 4 µM was above 7.5. Besides, in the assay on T-cell [2], the fold induction at 1 µM was above 0.201 and the fold induction at 8 µM was above 0.201. Moreover, in the assay on T-cell [3], the fold induction at 0.3 µM fell in the range of 1.01 to 1.3, the fold induction at 1 µM fell in the range of 1.51 to 1.75 and the fold induction at 4 µM is above 1.76. In addition, in the assay with T-cell [4], the fold induction at 1 µM lay in the range of 0.801 to 1 and the fold induction at 8 µM is above 1. The pIC50 on Cbl-b was at least 7.00.

For `Cc1cc(C(=O)Nc2cccc([C@H](C)Cc3nncn3C)c2)nc(C2CC2)n1` [Compound 195, (R)-2-cyclopropyl-6-methyl-N-(3-(1-(4-methyl-4H-1,2,4-triazol-3-yl)propan-2-yl)phenyl)pyrimidine-4-carboxamide], in the assay on T-cell [1], the fold induction at 0.3 µM lay within 5 to 7.5, the fold induction at 1 µM was above 7.5 and the fold induction at 4 µM is above 7.5. Further, in the assay with T-cell [2], the fold induction at 1 µM was above 0.201 and the fold induction at 8 µM was above 0.201. In addition, in the assay on T-cell [3], the fold induction at 0.3 µM was 1.51 to 1.75, the fold induction at 1 µM is above 1.76 and the fold induction at 4 µM was above 1.76. In addition, in the assay with T-cell [4], the fold induction at 1 µM is above 1 and the fold induction at 8 µM is above 1. Also, on Cbl-b, the pIC50 was at least 7.00.

As to `C[C@H](Cc1nncn1C)c1cccc(NC(=O)c2nc3c(C(F)(F)F)cccc3[nH]2)c1` [Compound 196, N-[3-[(1R)-1-methyl-2-(4-methyl-1,2,4-triazol-3-yl)ethyl]phenyl]-4-(trifluoromethyl)-1H-benzimidazole-2-carboxamide], the fold induction at 0.3 µM with T-cell [1] lay in the range of 2.51 to 5; in the assay with T-cell [3], 1.01 to 1.3. Also, the fold induction at 1 µM was 5 to 7.5 with T-cell [1], above 0.201 with T-cell [2], 1.51 to 1.75 in the assay on T-cell [3] and above 1 with T-cell [4]. In addition, the values for the fold induction at 4 µM in the assay on T-cell [1] and in the assay with T-cell [3] were above 7.5 and above 1.76, respectively. In addition, the values for the fold induction at 8 µM with T-cell [2] and in the assay with T-cell [4] were above 0.201 and above 1, respectively. Besides, the pIC50 on Cbl-b is at least 7.00.

With `C[C@H](Cc1nncn1C)c1cccc(NC(=O)c2ccnc(C3CC3)n2)c1` [Compound 199, (R)-2-cyclopropyl-N-(3-(1-(4-methyl-4H-1,2,4-triazol-3-yl)propan-2-yl)phenyl)pyrimidine-4-carboxamide], in the assay on T-cell [1], the fold induction at 0.3 µM is 2.51 to 5, the fold induction at 1 µM is 5 to 7.5 and the fold induction at 4 µM was above 7.5. For the same compound, in the assay with T-cell [2], the fold induction at 1 µM was above 0.201 and the fold induction at 8 µM was above 0.201. In the assay with T-cell [3], the fold induction at 0.3 µM fell in the range of 1.01 to 1.3, the fold induction at 1 µM is 1.31 to 1.5 and the fold induction at 4 µM fell in the range of 1.51 to 1.75. Further, in the assay on T-cell [4], the fold induction at 1 µM is above 1 and the fold induction at 8 µM was above 1. In addition, the pIC50 on Cbl-b was at least 7.00.

For `C[C@H](Cc1nncn1C)c1cccc(NC(=O)c2ccc(CO)c(C3CC3)n2)c1` [Compound 203, 6-cyclopropyl-5-(hydroxymethyl)-N-[3-[(2R)-1-(4-methyl-4H-1,2,4-triazol-3-yl)propan-2-yl]phenyl]pyridine-2-carboxamide], the figures for the fold induction at 0.3 µM in the assay on T-cell [1] and with T-cell [3] were above 7.5 and 1.31 to 1.5, respectively. In addition, the fold induction at 1 µM is above 7.5 with T-cell [1], above 0.201 with T-cell [2], 1.51 to 1.75 in the assay on T-cell [3] and above 1 in the assay with T-cell [4]. Moreover, the fold induction at 4 µM is above 7.5 in the assay on T-cell [1] and 1.51 to 1.75 with T-cell [3]. Further, the fold induction at 8 µM in the assay on T-cell [2] was above 0.201; in the assay with T-cell [4], above 1. Besides, the pIC50 on Cbl-b was at least 7.00.
